According to patent US20210059984A1, “METHOD AND COMPOSITION FOR REVERSING COGNITIVE IMPAIRMENTS AND LOSS USING SGLT2 INHIBITORS” (TAISHO PHARMACEUTICAL CO., LTD., priority 2019, published 2021):

Key:
T2DN rats [1] = experiment: Autoregulation of cerebral blood flow (laser Doppler flowmetry); format: in vivo, rat; details: aged T2DN rats, 20 mg/kg/day via drinking water for 4 months; FIG. 5
Protocol: Measurements of arterial pressure and cortical blood flow (CBF) were performed by inserting cannulas in the femoral artery and vein for drug delivery and monitoring the mean arterial pressure (MAP). A closed cranial window was prepared on both sides of the brain by thinning the bone using a dental drill until the vessels on the surface of the brain could be visualized. Cortical blood flow (CBF) was measured using a laser Doppler flowmeter (LDF). Unless otherwise indicated, all experiments using SGLT2 inhibitors were performed on 18-month old male Sprague Dawley (SD) and 14-month old […] rats, a genetic rat model of type II diabetes. […] Next the effect of SGLT2 inhibitor was examined in the treatment of impaired myogenic response and autoregulation of cerebral blood flow was determined. […] The myogenic reactivity in response to an elevation in perfusion pressure was calculated by the formula: Dpressure/ID60 mmHg×100(%). […] After a 10-min equilibration period, baseline CBF was measured at 100 mmHg. […] CBF was measured at each step when the MAP reached a steady state. The infusion of phenylephrine was then stopped which allowed MAP to return to 100 mmHg, and CBF was re-recorded. […] Percentage change of CBF was calculated by the formula: [(CBFMAP-CBFbaseline)/CBFbaseline]×100(%).

[2] = test system: middle cerebral artery of T2DN rats; experiment: Pressure-induced myogenic response of isolated middle cerebral artery; format: ex vivo, rat; details: aged T2DN rats, 20 mg/kg/day via drinking water for 4 months; FIG. 4
Excerpt: To measure the myogenic response of cerebral arteries, a section of the brain containing middle cerebral artery (MCA) was dissected and immediately placed in Tyrode's solution. A branch of the MCA was microdissected and cannulated with glass pipettes in a pressure myograph chamber filled with a physiologic salt solution (PSS). The vessels were equilibrated at a transmural pressure of 40 mmHg to develop spontaneous tone. After preconditioning, the inner diameter (ID) of MCA in response to intraluminal pressures ranging from 40 to 180 mmHg in steps of 20 mmHg was measured to access the myogenic response. Then, a passive pressure-diameter relationship was determined by replacing the bath solution with calcium-free PSS. The myogenic reactivity in response to an elevation in perfusion pressure was calculated by the formula: IDpressure/D40 mmHg×100(%). […] Next the effect of SGLT2 inhibitor was examined in the treatment of impaired myogenic response and autoregulation of cerebral blood flow was determined. […] The myogenic reactivity in response to an elevation in perfusion pressure was calculated by the formula: Dpressure/ID60 mmHg×100(%). […] After a 10-min equilibration period, baseline CBF was measured at 100 mmHg. […] CBF was measured at each step when the MAP reached a steady state. The infusion of phenylephrine was then stopped which allowed MAP to return to 100 mmHg, and CBF was re-recorded. […]

T2DN rats [3] = experiment: Functional hyperemia (neurovascular coupling) in response to whisker stimulation; format: in vivo, rat; details: old diabetic T2DN rats, whisker stimulation 10 Hz for 60 seconds; FIG. 7
Protocol: Unless otherwise indicated, all experiments using SGLT2 inhibitors were performed on 18-month old male Sprague Dawley (SD) and 14-month old […] rats, a genetic rat model of type II diabetes. Outbred SD rats purchased from Charles River were used as a nondiabetic control rat since identical genotypes are not necessary for this study. […] rats were prepared according to Diabetes, vol. 53, March 2004, pages 735-742. […] Treatment with an SGLT2 inhibitor began at 14-months of age and lasted for 4 months to determine whether control of hyperglycemia can slow the progression of cognitive dysfunction. Rats received either a vehicle or the SGLT2 inhibitor, luseogliflozin, at a dose of 20 mg/kg/day via drinking water. The SD rats were used as control. […] In these studies, neurovascular coupling (NVC) responses were investigated prior to cerebral autoregulation study. […] Cortical blood flow (CBF) was measured using a laser Doppler flowmeter ([…] probe was placed above somatosensory cortex for the recording of LDF signal change (CBFchange). Percentage changes in CBF at various perfusion pressures vs. CBF at perfusion pressure of 100 mmHg were determined in response to whisker stimulation.

T2DN rats [4] = experiment: Eight-arm radial water maze test of spatial learning and memory; format: in vivo, rat; details: DM (T2DN) rats, tests 2, 24, 48 and 72 hours post training; FIG. 8
Protocol: Unless otherwise indicated, all experiments using SGLT2 inhibitors were performed on 18-month old male Sprague Dawley (SD) and 14-month old […] rats, a genetic rat model of type II diabetes. Outbred SD rats purchased from Charles River were used as a nondiabetic control rat since identical genotypes are not necessary for this study. […] rats were prepared according to Diabetes, vol. 53, March 2004, pages 735-742. […] Treatment with an SGLT2 inhibitor began at 14-months of age and lasted for 4 months to determine whether control of hyperglycemia can slow the progression of cognitive dysfunction. Rats received either a vehicle or the SGLT2 inhibitor, luseogliflozin, at a dose of 20 mg/kg/day via drinking water. The SD rats were used as control. […] The rats are trained to identify a platform marked with a visual cue in one of the 8 arms of the pool to escape. Four memory trials are performed at 2, 24, 48 and 72 hrs after the training, which consist of 4 consecutive swims. The time to reach the platform (latency), the number of errors, distance traveled and swim speed were recorded (Nat Protoc 1: 1671-1679, 2006). Control, DM and DM luseogliflozin treated rats were trained on the first day to recognize the platform located in one of the eight arms to escape, and repeated tests were performed 2, 24, 48, and 72 hours post training. The time taken by the rats to reach the platform was recorded. […]

T2DN rats [5] = experiment: Blood-brain barrier leakage by Evans blue dye; format: in vivo, rat; details: aged T2DN rats, long-term treatment, MAP 180 mmHg for 1 hour; FIG. 6
Protocol: Unless otherwise indicated, all experiments using SGLT2 inhibitors were performed on 18-month old male Sprague Dawley (SD) and 14-month old […] rats, a genetic rat model of type II diabetes. Outbred SD rats purchased from Charles River were used as a nondiabetic control rat since identical genotypes are not necessary for this study. […] rats were prepared according to Diabetes, vol. 53, March 2004, pages 735-742. […] Treatment with an SGLT2 inhibitor began at 14-months of age and lasted for 4 months to determine whether control of hyperglycemia can slow the progression of cognitive dysfunction. Rats received either a vehicle or the SGLT2 inhibitor, luseogliflozin, at a dose of 20 mg/kg/day via drinking water. The SD rats were used as control. To determine the impact of higher cerebral blood flow with extended middle cerebral artery diameters on the brain, the brains of SGLT2-treated and untreated rats were assessed for blood brain leakage (BBB). Evans blue (EB) dye was used to compare the degree of BBB leakage. EB was injected via the femoral vein, and MAP was maintained at 180 mmHg for 1 hour by adjusting the infusion rate of phenylephrine. […] The brain was then homogenized and BBB leakage was quantitated using a fluorescent microplate reader at excitation and emission wavelengths of 620 nm and 680 nm.

T2DN rats [6] = experiment: Plasma glucose and HbA1c levels in aged diabetic T2DN rats during drug treatment; format: in vivo, rat; details: 20 mg/kg/day via drinking water, from 14 months of age for 4 months, FIG. 3
Protocol: Unless otherwise indicated, all experiments using SGLT2 inhibitors were performed on 18-month old male Sprague Dawley (SD) and 14-month old […] rats, a genetic rat model of type II diabetes. Outbred SD rats purchased from Charles River were used as a nondiabetic control rat since identical genotypes are not necessary for this study. […] rats were prepared according to Diabetes, vol. 53, March 2004, pages 735-742. […] Treatment with an SGLT2 inhibitor began at 14-months of age and lasted for 4 months to determine whether control of hyperglycemia can slow the progression of cognitive dysfunction. Rats received either a vehicle or the SGLT2 inhibitor, luseogliflozin, at a dose of 20 mg/kg/day via drinking water. The SD rats were used as control. The levels of plasma glucose and HbA1c were measured by drawing a drop of blood from the tail vein during drug treatment and using traditional analytical methods to determine the concentration of plasma glucose and HbA1c.

SGLT2 = target: T1, SGLT2 (Homo sapiens, UniProt P31639); details: among the three FDA approved drugs; cited from earlier work
T1 sequence (P31639 1-672): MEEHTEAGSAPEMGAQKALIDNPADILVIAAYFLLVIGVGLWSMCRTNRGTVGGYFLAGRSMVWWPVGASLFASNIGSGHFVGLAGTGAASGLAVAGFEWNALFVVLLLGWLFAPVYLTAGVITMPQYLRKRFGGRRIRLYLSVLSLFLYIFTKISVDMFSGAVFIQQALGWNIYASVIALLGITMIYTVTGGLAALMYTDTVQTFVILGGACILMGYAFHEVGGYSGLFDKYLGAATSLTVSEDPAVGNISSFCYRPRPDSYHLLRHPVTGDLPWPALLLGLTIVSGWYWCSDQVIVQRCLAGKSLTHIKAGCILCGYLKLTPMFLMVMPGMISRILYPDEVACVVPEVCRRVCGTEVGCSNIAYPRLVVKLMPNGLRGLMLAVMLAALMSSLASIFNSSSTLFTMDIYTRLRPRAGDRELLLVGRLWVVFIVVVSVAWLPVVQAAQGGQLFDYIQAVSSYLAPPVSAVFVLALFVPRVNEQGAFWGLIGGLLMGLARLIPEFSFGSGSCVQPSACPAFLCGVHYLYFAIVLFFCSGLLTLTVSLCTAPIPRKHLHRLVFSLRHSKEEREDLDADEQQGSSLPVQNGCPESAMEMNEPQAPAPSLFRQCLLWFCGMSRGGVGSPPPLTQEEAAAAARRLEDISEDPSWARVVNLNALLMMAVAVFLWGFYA

diabetic patients = details: mean age 77 years, 12-month administration; cited from earlier work
diabetic mice = details: cited from earlier work

Row | SMILES | cerebral blood flow on elevation of MAP (autoregulation) (T2DN rats [1]) | diameters of middle cerebral artery upon exposure to higher perfusion pressures (myogenic response) [2] | functional hyperemia in response to whisker stimulation (T2DN rats [3]) | escape time (time to reach the platform), cognitive performance (T2DN rats [4]) | blood brain barrier damage (Evans blue leakage) (T2DN rats [5]) | levels of HbA1c (T2DN rats [6]) | levels of plasma glucose (T2DN rats [6]) | selectivity for SGLT2 compared to SGLT1 (SGLT2) | cognitive functions (cognitive performance) (diabetic patients) | cognitive function (diabetic mice)
1 | CCOc1ccc(Cc2cc([C@@H]3S[C@H](CO)[C@@H](O)[C@H](O)[C@H]3O)c(OC)cc2C)cc1 [luseogliflozin] | restored to normal levels | completely reversed the increase in the diameters of middle cerebral artery | restored | reduced escape time similar to normal rats | completely reversed the blood brain barrier damage | reduced both the levels of plasma glucose and HbA1c to near normal | reduced both the levels of plasma glucose and HbA1c to near normal | – | – | –
2 | Cc1ccc([C@@H]2O[C@H](CO)[C@@H](O)[C@H](O)[C@H]2O)cc1Cc1ccc(-c2ccc(F)cc2)s1 [canagliflozin] | – | – | – | – | – | – | – | least selective | no worsening of their cognitive functions | –
3 | OC[C@H]1O[C@@H](c2ccc(Cl)c(Cc3ccc(O[C@H]4CCOC4)cc3)c2)[C@H](O)[C@@H](O)[C@@H]1O [empagliflozin] | – | – | – | – | – | – | – | greatest selectivity | no worsening of their cognitive functions | cognitive function improving effect
